According to ChEMBL document CHEMBL3885861, “Open TG-GATES”:

Organism: Rattus norvegicus
Assay: Open TG-GATES - Regimen: Single
Format: toxicity, organism-based, Sprague-Dawley
Parameters: regimen Single, gender Male, age 6 weeks
Conditions: in vivo, po, 2000 mg/kg, route gavage, dose level High; for APTT / Bas / Eos / Fbg / Hb / Ht / Lym / MCH / MCHC / MCV / Mono / Neu / PT / Plat / RBC / Ret / WBC: tissue Blood; for KIDNEY_L / KIDNEY_R / KIDNEY_TOTAL: tissue Kidney; for LIVER: tissue Liver; for A/G / ALP / ALT / AST / BUN / CRE / Ca / Cl / DBIL / GLC / IP / K / LDH / Na / PL / RALB / TBIL / TC / TG / TP / gamma-GTP: tissue Plasma

Structure (SMILES): Clc1c(Cl)c(Cl)c(Cl)c(Cl)c1Cl [PERCHLOROBENZENE]
- TERMINAL_BW (3 h): 219.3 g
- APTT (3 h): 19.9 s
- Bas (3 h): 0.4%
- Eos (3 h): 1%
- Fbg (3 h): 223.4 mg/dL
- Hb (3 h): 13.8 g/dL
- Ht (3 h): 38.5%
- Lym (3 h): 76.4%
- MCH (3 h): 22.1 pg
- MCHC (3 h): 35.7%
- MCV (3 h): 62 fL
- Mono (3 h): 2.2%
- Neu (3 h): 19.2%
- PT (3 h): 12 s
- Plat (3 h): 128.8 x10_4/uL
- RBC (3 h): 621.4 x10_4/ul
- Ret (3 h): 7.4%
- WBC (3 h): 104.4 x10_2/uL
- KIDNEY_L (3 h): 1 g
- KIDNEY_R (3 h): 1 g
- KIDNEY_TOTAL (3 h): 2 g
- LIVER (3 h): 10.1 g
- A/G (3 h): 1.6
- ALP (3 h): 1055.8 IU/L
- ALT (3 h): 37.2 IU/L
- AST (3 h): 76.8 IU/L
- BUN (3 h): 10.8 mg/dL
- CRE (3 h): 0.4 mg/dL
- Ca (3 h): 11 mg/dL
- Cl (3 h): 103 meq/L
- DBIL (3 h): 0.062 mg/dL
- GLC (3 h): 192.6 mg/dL
- IP (3 h): 9.3 mg/dL
- K (3 h): 3.8 meq/L
- LDH (3 h): 231.2 IU/L
- Na (3 h): 141.4 meq/L
- PL (3 h): 151 mg/dL
- RALB (3 h): 3.4 g/dL
- TBIL (3 h): 0.1 mg/dL
- TC (3 h): 74.6 mg/dL
- TG (3 h): 132 mg/dL
- TP (3 h): 5.6 g/dL
- gamma-GTP (3 h): 1.2 IU/L
- TERMINAL_BW (6 h): 215.7 g
- APTT (6 h): 19.3 s
- Bas (6 h): 0.2%
- Eos (6 h): 1%
- Fbg (6 h): 239.6 mg/dL
- Hb (6 h): 13.6 g/dL
- Ht (6 h): 39.1%
- Lym (6 h): 74%
- MCH (6 h): 21.2 pg
- MCHC (6 h): 34.6%
- MCV (6 h): 61 fL
- Mono (6 h): 2.6%
- Neu (6 h): 20.8%
- PT (6 h): 12 s
- Plat (6 h): 134.1 x10_4/uL
- RBC (6 h): 641.6 x10_4/ul
- Ret (6 h): 7.1%
- WBC (6 h): 105.2 x10_2/uL
- KIDNEY_L (6 h): 0.9 g
- KIDNEY_R (6 h): 0.9 g
- KIDNEY_TOTAL (6 h): 1.8 g
- LIVER (6 h): 9 g
- A/G (6 h): 1.8
- ALP (6 h): 1089.2 IU/L
- ALT (6 h): 34 IU/L
- AST (6 h): 77.2 IU/L
- BUN (6 h): 9.4 mg/dL
- CRE (6 h): 0.4 mg/dL
- Ca (6 h): 10.6 mg/dL
- Cl (6 h): 102.8 meq/L
- DBIL (6 h): 0.072 mg/dL
- GLC (6 h): 196.2 mg/dL
- IP (6 h): 9.3 mg/dL
- K (6 h): 3.9 meq/L
- LDH (6 h): 219 IU/L
- Na (6 h): 141.2 meq/L
- PL (6 h): 132.6 mg/dL
- RALB (6 h): 3.5 g/dL
- TBIL (6 h): 0.1 mg/dL
- TC (6 h): 73.8 mg/dL
- TG (6 h): 55 mg/dL
- TP (6 h): 5.5 g/dL
- gamma-GTP (6 h): 1 IU/L
- TERMINAL_BW (9 h): 214.9 g
- APTT (9 h): 17.8 s
- Bas (9 h): 0%
- Eos (9 h): 1%
- Fbg (9 h): 224.6 mg/dL
- Hb (9 h): 13.5 g/dL
- Ht (9 h): 38.5%
- Lym (9 h): 74.2%
- MCH (9 h): 21.5 pg
- MCHC (9 h): 35.1%
- MCV (9 h): 61.4 fL
- Mono (9 h): 2.2%
- Neu (9 h): 21%
- PT (9 h): 12 s
- Plat (9 h): 126.2 x10_4/uL
- RBC (9 h): 626.2 x10_4/ul
- Ret (9 h): 7.3%
- WBC (9 h): 92.9 x10_2/uL
- KIDNEY_L (9 h): 1 g
- KIDNEY_R (9 h): 1 g
- KIDNEY_TOTAL (9 h): 1.9 g
- LIVER (9 h): 9 g
- A/G (9 h): 1.7
- ALP (9 h): 944.6 IU/L
- ALT (9 h): 26.4 IU/L
- AST (9 h): 68.4 IU/L
- BUN (9 h): 10.6 mg/dL
- CRE (9 h): 0.4 mg/dL
- Ca (9 h): 10.6 mg/dL
- Cl (9 h): 103.4 meq/L
- DBIL (9 h): 0.064 mg/dL
- GLC (9 h): 207.2 mg/dL
- IP (9 h): 10.7 mg/dL
- K (9 h): 4.1 meq/L
- LDH (9 h): 216.6 IU/L
- Na (9 h): 141.2 meq/L
- PL (9 h): 130.2 mg/dL
- RALB (9 h): 3.4 g/dL
- TBIL (9 h): 0.1 mg/dL
- TC (9 h): 68 mg/dL
- TG (9 h): 44 mg/dL
- TP (9 h): 5.4 g/dL
- gamma-GTP (9 h): 0.8 IU/L
- TERMINAL_BW (24 h): 231.5 g
- APTT (24 h): 18.5 s
- Bas (24 h): 0.2%
- Eos (24 h): 1%
- Fbg (24 h): 233.4 mg/dL
- Hb (24 h): 13.7 g/dL
- Ht (24 h): 39.3%
- Lym (24 h): 76.4%
- MCH (24 h): 21 pg
- MCHC (24 h): 34.8%
- MCV (24 h): 60.4 fL
- Mono (24 h): 2.6%
- Neu (24 h): 19%
- PT (24 h): 11.6 s
- Plat (24 h): 126.2 x10_4/uL
- RBC (24 h): 651.6 x10_4/ul
- Ret (24 h): 6%
- WBC (24 h): 100 x10_2/uL
- KIDNEY_L (24 h): 1 g
- KIDNEY_R (24 h): 0.9 g
- KIDNEY_TOTAL (24 h): 1.9 g
- LIVER (24 h): 11.1 g
- A/G (24 h): 1.5
- ALP (24 h): 1190.4 IU/L
- ALT (24 h): 36.2 IU/L
- AST (24 h): 71.4 IU/L
- BUN (24 h): 14.8 mg/dL
- CRE (24 h): 0.4 mg/dL
- Ca (24 h): 10.7 mg/dL
- Cl (24 h): 103.4 meq/L
- DBIL (24 h): 0.052 mg/dL
- GLC (24 h): 195.6 mg/dL
- IP (24 h): 7.4 mg/dL
- K (24 h): 3.9 meq/L
- LDH (24 h): 229.6 IU/L
- Na (24 h): 141.2 meq/L
- PL (24 h): 139.6 mg/dL
- RALB (24 h): 3.3 g/dL
- TBIL (24 h): 0.1 mg/dL
- TC (24 h): 74 mg/dL
- TG (24 h): 108.8 mg/dL
- TP (24 h): 5.5 g/dL
- gamma-GTP (24 h): 1.2 IU/L
